Data from PubChem BioAssay AID1963972 (Molecular Pharmacology Branch, DTP, NCI, 2024).
One block for each compound: values may come before it.

System: 945468-187-T-J2-PDC spheroids viability
Assay: Anticancer human tumor 945468-187-T-J2-PDC patient-derived rectal carcinoma cell line growth inhibition [PI3K]
Conditions: spheroids with HUVEC and MSC; for viability, T/C: stronger effect = lower value
Outline: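 Tumor cells were combined with HUVEC and MSCs into spheroids, then dosed with PI3K-inhibitor combinations over half-log ranges capped near clinical Cmax or 10 microM.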

[1] = curve of first compound, second compound 0.00316 µM
[2] = curve of first compound, second compound 0.01 µM
[3] = curve of first compound, second compound 0.0316 µM
[4] = curve of first compound, second compound 0.1 µM
[5] = curve of first compound, second compound 0.316 µM
[6] = curve of first compound, second compound 1 µM
[7] = second compound 0.00316 µM, first compound 0.0316 µM
[8] = second compound 0.00316 µM, first compound 0.1 µM
[9] = second compound 0.00316 µM, first compound 0.316 µM
[10] = second compound 0.00316 µM, first compound 1 µM
[11] = second compound 0.00316 µM, first compound 3.16 µM
[12] = second compound 0.00316 µM, first compound 10 µM
[13] = second compound 0.01 µM, first compound 0.0316 µM
[14] = second compound 0.01 µM, first compound 0.1 µM
[15] = second compound 0.01 µM, first compound 0.316 µM
[16] = second compound 0.01 µM, first compound 1 µM
[17] = second compound 0.01 µM, first compound 3.16 µM
[18] = second compound 0.01 µM, first compound 10 µM
[19] = second compound 0.0316 µM, first compound 0.0316 µM
[20] = second compound 0.0316 µM, first compound 0.1 µM
[21] = second compound 0.0316 µM, first compound 0.316 µM
[22] = second compound 0.0316 µM, first compound 1 µM
[23] = second compound 0.0316 µM, first compound 3.16 µM
[24] = second compound 0.0316 µM, first compound 10 µM
[25] = second compound 0.1 µM, first compound 0.0316 µM
[26] = second compound 0.1 µM, first compound 0.1 µM
[27] = second compound 0.1 µM, first compound 0.316 µM
[28] = second compound 0.1 µM, first compound 1 µM
[29] = second compound 0.1 µM, first compound 3.16 µM
[30] = second compound 0.1 µM, first compound 10 µM
[31] = second compound 0.316 µM, first compound 0.0316 µM
[32] = second compound 0.316 µM, first compound 0.1 µM
[33] = second compound 0.316 µM, first compound 0.316 µM
[34] = second compound 0.316 µM, first compound 1 µM
[35] = second compound 0.316 µM, first compound 3.16 µM
[36] = second compound 0.316 µM, first compound 10 µM
[37] = second compound 1 µM, first compound 0.0316 µM
[38] = second compound 1 µM, first compound 0.1 µM
[39] = second compound 1 µM, first compound 0.316 µM
[40] = second compound 1 µM, first compound 1 µM
[41] = second compound 1 µM, first compound 3.16 µM
[42] = second compound 1 µM, first compound 10 µM
[43] = curve of first compound, second compound 3.16 µM
[44] = curve of first compound, second compound 10 µM
[45] = second compound 3.16 µM, first compound 0.0316 µM
[46] = second compound 3.16 µM, first compound 0.1 µM
[47] = second compound 3.16 µM, first compound 0.316 µM
[48] = second compound 3.16 µM, first compound 1 µM
[49] = second compound 3.16 µM, first compound 3.16 µM
[50] = second compound 3.16 µM, first compound 10 µM
[51] = second compound 10 µM, first compound 0.0316 µM
[52] = second compound 10 µM, first compound 0.1 µM
[53] = second compound 10 µM, first compound 0.316 µM
[54] = second compound 10 µM, first compound 1 µM
[55] = second compound 10 µM, first compound 3.16 µM
[56] = second compound 10 µM, first compound 10 µM
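Also: spheroids exposed to compounds for seven days before reading.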

- IC50 [1]: > 10 µM
- IC50 [2]: > 10 µM
- IC50 [3]: > 10 µM
- IC50 [4]: > 10 µM
- IC50 [5]: < 0.0316 µM
- IC50 [6]: < 0.0316 µM
SMILES: CC1(C)CCC(CN2CCN(c3ccc(C(=O)NS(=O)(=O)c4ccc(NCC5CCOCC5)c([N+](=O)[O-])c4)c(Oc4cnc5[nH]ccc5c4)c3)CC2)=C(c2ccc(Cl)cc2)C1 + COc1c(OCCCN2CCOCC2)ccc2c3n(c(=NC(=O)c4cnc(N)nc4)nc12)CCN3
- viability, T/C [7]: 87.8%
- viability, T/C [8]: 87.4%
- viability, T/C [9]: 94.8%
- viability, T/C [10]: 110%
- viability, T/C [11]: 116%
- viability, T/C [12]: 74.1%
- viability, T/C [13]: 96.8%
- viability, T/C [14]: 100%
- viability, T/C [15]: 90.5%
- viability, T/C [16]: 89.6%
- viability, T/C [17]: 95.7%
- viability, T/C [18]: 90.3%
- viability, T/C [19]: 99.9%
- viability, T/C [20]: 103%
- viability, T/C [21]: 82.9%
- viability, T/C [22]: 115%
- viability, T/C [23]: 97%
- viability, T/C [24]: 105%
- viability, T/C [25]: 87.7%
- viability, T/C [26]: 75%
- viability, T/C [27]: 100%
- viability, T/C [28]: 90.5%
- viability, T/C [29]: 84.5%
- viability, T/C [30]: 81.6%
- viability, T/C [31]: 31.3%
- viability, T/C [32]: 36.7%
- viability, T/C [33]: 47.7%
- viability, T/C [34]: 38.6%
- viability, T/C [35]: 33%
- viability, T/C [36]: 36.7%
- viability, T/C [37]: 19.9%
- viability, T/C [38]: 21.4%
- viability, T/C [39]: 19.4%
- viability, T/C [40]: 19.9%
- viability, T/C [41]: 22.4%
- viability, T/C [42]: 22.6%

- IC50 (curve of compound): > 10 µM
SMILES: CC(C)NCC(C(=O)N1CCN(c2ncnc3c2C(C)CC3O)CC1)c1ccc(Cl)cc1 (stereo not drawn)
- viability, T/C (compound 0.1 µM): 91.8% [middle of 4 runs]
- viability, T/C (compound 0.316 µM): 90.2% [middle of 4 runs]
- viability, T/C (compound 1 µM): 103% [middle of 4 runs]
- viability, T/C (compound 3.16 µM): 99.7% [middle of 4 runs]

- IC50 [3]: > 10 µM
- IC50 [4]: > 10 µM
- IC50 [5]: > 10 µM
- IC50 [6]: > 10 µM
- IC50 [43]: > 10 µM
- IC50 [44]: > 10 µM
SMILES: CC1(C)CCC(CN2CCN(c3ccc(C(=O)NS(=O)(=O)c4ccc(NCC5CCOCC5)c([N+](=O)[O-])c4)c(Oc4cnc5[nH]ccc5c4)c3)CC2)=C(c2ccc(Cl)cc2)C1 + CC(Nc1ncnc2nc[nH]c12)c1cc2cccc(Cl)c2c(=O)n1-c1ccccc1
- viability, T/C [19]: 91.7%
- viability, T/C [20]: 92.2%
- viability, T/C [21]: 99.8%
- viability, T/C [22]: 98.2%
- viability, T/C [23]: 94%
- viability, T/C [24]: 81%
- viability, T/C [25]: 82.3%
- viability, T/C [26]: 75.7%
- viability, T/C [27]: 84.5%
- viability, T/C [28]: 78.6%
- viability, T/C [29]: 96.5%
- viability, T/C [30]: 79.1%
- viability, T/C [31]: 97.1%
- viability, T/C [32]: 93.4%
- viability, T/C [33]: 93.2%
- viability, T/C [34]: 100%
- viability, T/C [35]: 119%
- viability, T/C [36]: 80.5%
- viability, T/C [37]: 97.4%
- viability, T/C [38]: 87.8%
- viability, T/C [39]: 103%
- viability, T/C [40]: 92.9%
- viability, T/C [41]: 107%
- viability, T/C [42]: 63.2%
- viability, T/C [45]: 96%
- viability, T/C [46]: 115%
- viability, T/C [47]: 84.8%
- viability, T/C [48]: 134%
- viability, T/C [49]: 102%
- viability, T/C [50]: 86.6%
- viability, T/C [51]: 94.5%
- viability, T/C [52]: 81.5%
- viability, T/C [53]: 104%
- viability, T/C [54]: 124%
- viability, T/C [55]: 97.7%
- viability, T/C [56]: 84.8%

- IC50 [3]: 0.667 µM
- IC50 [4]: 0.605 µM
- IC50 [5]: 0.736 µM
- IC50 [6]: 0.685 µM
- IC50 [43]: 0.665 µM
- IC50 [44]: 0.548 µM
SMILES: CC1(C)CCC(Nc2ncc(C(F)(F)F)c(-c3c[nH]c4c(P(C)(C)=O)c(C#N)ccc34)n2)CN1 (stereo not drawn) + CC(Nc1ncnc2nc[nH]c12)c1cc2cccc(Cl)c2c(=O)n1-c1ccccc1
- viability, T/C [19]: 91.5%
- viability, T/C [20]: 95.5%
- viability, T/C [21]: 77.8%
- viability, T/C [22]: 35%
- viability, T/C [23]: 30.3%
- viability, T/C [24]: 29.3%
- viability, T/C [25]: 95.6%
- viability, T/C [26]: 92.4%
- viability, T/C [27]: 66.3%
- viability, T/C [28]: 37.2%
- viability, T/C [29]: 33.9%
- viability, T/C [30]: 30.5%
- viability, T/C [31]: 89.7%
- viability, T/C [32]: 86.9%
- viability, T/C [33]: 63.7%
- viability, T/C [34]: 44.8%
- viability, T/C [35]: 35.1%
- viability, T/C [36]: 28.1%
- viability, T/C [37]: 104%
- viability, T/C [38]: 81.5%
- viability, T/C [39]: 56.9%
- viability, T/C [40]: 40.7%
- viability, T/C [41]: 46.3%
- viability, T/C [42]: 25.6%
- viability, T/C [45]: 92.4%
- viability, T/C [46]: 82.4%
- viability, T/C [47]: 69.2%
- viability, T/C [48]: 38.5%
- viability, T/C [49]: 34.9%
- viability, T/C [50]: 32.4%
- viability, T/C [51]: 125%
- viability, T/C [52]: 76.3%
- viability, T/C [53]: 60.4%
- viability, T/C [54]: 42.8%
- viability, T/C [55]: 39%
- viability, T/C [56]: 21.5%

- IC50 [1]: > 10 µM
- IC50 [2]: > 10 µM
- IC50 [3]: > 10 µM
- IC50 [4]: > 10 µM
- IC50 [5]: > 10 µM
- IC50 [6]: > 10 µM
SMILES: Cn1ncc(Cl)c1-c1cc(C(=O)NC(CN)Cc2cccc(F)c2)sc1Cl (stereo not drawn) + CC(Nc1ccc2c(c1)OCCn1cc(N3C(=O)OCC3C(F)F)nc1-2)C(N)=O
- viability, T/C [7]: 82%
- viability, T/C [8]: 76.6%
- viability, T/C [9]: 66.5%
- viability, T/C [10]: 70%
- viability, T/C [11]: 58.5%
- viability, T/C [12]: 73.8%
- viability, T/C [13]: 80.1%
- viability, T/C [14]: 75.4%
- viability, T/C [15]: 95.7%
- viability, T/C [16]: 75.8%
- viability, T/C [17]: 66.7%
- viability, T/C [18]: 95.7%
- viability, T/C [19]: 99.8%
- viability, T/C [20]: 88.3%
- viability, T/C [21]: 95.9%
- viability, T/C [22]: 71.6%
- viability, T/C [23]: 62.3%
- viability, T/C [24]: 96%
- viability, T/C [25]: 93.2%
- viability, T/C [26]: 86.1%
- viability, T/C [27]: 78.4%
- viability, T/C [28]: 71.8%
- viability, T/C [29]: 62.2%
- viability, T/C [30]: 81.5%
- viability, T/C [31]: 70.6%
- viability, T/C [32]: 79.5%
- viability, T/C [33]: 77.1%
- viability, T/C [34]: 83.9%
- viability, T/C [35]: 63.6%
- viability, T/C [36]: 65.4%
- viability, T/C [37]: 70.3%
- viability, T/C [38]: 56.6%
- viability, T/C [39]: 68.5%
- viability, T/C [40]: 74%
- viability, T/C [41]: 39.6%
- viability, T/C [42]: 66.4%
